One assay has as its system BxPC-3 cells. The assay is described as follows: On-Cell ELISA binding, BxPC3 cells (TROP2 high). Conditions: for EC50: On-Cell ELISA, TROP2 high cells; for ΔAUC: AUC (BxPC-3) minus AUC (MDA-MB-231-KWL); for AUC (BxPC-3): area under On-Cell ELISA binding curve; for ΔAUC/AUC (BxPC-3): differential BxPC3 vs MDA-MB-231-KWL. It is filed as cell-based, human. The arrangement: AUC (BxPC-3): unit not given beside the values. How it is done:
(§1) Cell lines expressing TROP2.
(§2) Cells were plated in duplicate onto 96-well plates, and primary antibody was diluted in cell culture medium with a starting concentration of 30 μg/mL (200 nM) with a dilution factor of 1:5. After 3× wash, secondary antibody was added for 1 hour at 1 ug/ml, washed three times and absorbance was measured at 450 nm. Data was plotted and analyzed. EC50 ([…]) was measured along with area under the curve (AUC) for each cell line.

In another assay the test system is MDA-MB-231-KWL cells. The assay is described as follows: On-Cell ELISA binding, MDA-MB-231-KWL cells (TROP2 low). It is filed as cell-based. The arrangement: AUC (MDA-MB-231-KWL): unit not given beside the values. Conditions: for EC50: read-out: MDA-MB-231-KWL EC50, On-Cell ELISA, TROP2 low cells; for AUC (MDA-MB-231-KWL): area under On-Cell ELISA binding curve. On the procedure:
as §1, §2
In general terms: An ELISA detects its analyte on a solid surface through an enzyme-linked reagent.

On to “mAb_LC_Hm_W106A: Sacituzumab HC W106A mutein, Sacituzumab LC”, for which the response in the assay on BxPC-3 cells was half-maximal at 1.68 nM (EC50).
As to “mAb_Lm_Y53S_HC: Sacituzumab LC Y53S mutein, Sacituzumab HC”, the EC50 (as a rule, the concentration at which the effect is half-maximal) was found to be 0.28 nM with BxPC-3 cells and 0.304 nM in the assay with MDA-MB-231-KWL cells.
In the case of “mAb_LC_Hm_F101E: Sacituzumab HC F101E mutein, Sacituzumab LC”, the EC50 in the assay on BxPC-3 cells is 0.482 nM; in the assay with MDA-MB-231-KWL cells it was 2.69 nM.
Regarding “mAb_Lm_S30R_HC: Sacituzumab LC S30R mutein, Sacituzumab HC”, in the assay with BxPC-3 cells, the response was half-maximal at 0.697 nM (EC50).
In the case of “mAb_LC_Hm_F29G: Sacituzumab HC F29G mutein, Sacituzumab LC”, the figures for the concentration giving a half-maximal response (EC50) with BxPC-3 cells and with MDA-MB-231-KWL cells were 0.32 nM and 0.448 nM, respectively.
Regarding “mAb_Lm_H91Y_HC: Sacituzumab LC H91Y mutein, Sacituzumab HC”, in the assay on BxPC-3 cells, a half-maximal response (EC50) required 3.56 nM.
Consider “mAb_Lm_S50T_HC: Sacituzumab LC S50T mutein, Sacituzumab HC”, for which the half-maximal effective concentration (EC50) was 0.222 nM with BxPC-3 cells and 0.568 nM with MDA-MB-231-KWL cells.
With “mAb_LC_Hm_F101T: Sacituzumab HC F101T mutein, Sacituzumab LC”, the concentration for a half-maximal effect (EC50) with BxPC-3 cells was 0.336 nM; with MDA-MB-231-KWL cells it was 0.871 nM.
Take “mAb_LC_Hm_G33S: Sacituzumab HC G33S mutein, Sacituzumab LC”: the EC50 in the assay on BxPC-3 cells was 2.24 nM.
Turning to “mAb_LC_Hm_S104D: Sacituzumab HC S104D mutein, Sacituzumab LC”, the concentration giving a half-maximal response (EC50) in the assay with BxPC-3 cells amounted to 0.214 nM.
For the substance “mAb_Lm_Y92N_HC: Sacituzumab LC Y92N mutein, Sacituzumab HC”, the concentration giving a half-maximal response (EC50) with BxPC-3 cells came out at 0.839 nM.
As for “mAb_Lm_Y53P_HC: Sacituzumab LC Y53P mutein, Sacituzumab HC”, the half-maximal effective concentration (EC50) turned out to be 0.218 nM in the assay with BxPC-3 cells and 0.629 nM in the assay on MDA-MB-231-KWL cells.
Take “mAb_LC_Hm_W106H: Sacituzumab HC W106H mutein, Sacituzumab LC”: in the assay on BxPC-3 cells, the ΔAUC is 192.47, the EC50 worked out at 1.16 nM, the “AUC (BxPC-3)” value is recorded as 215.2 and the “ΔAUC/AUC (BxPC-3)” value is listed as 0.605. For the same substance, the “AUC (MDA-MB-231-KWL)” value with MDA-MB-231-KWL cells was determined as 22.73.
Regarding “mAb_LC_Hm_G33I: Sacituzumab HC G33I mutein, Sacituzumab LC”, the concentration for a half-maximal effect (EC50) with BxPC-3 cells turned out to be 0.217 nM; with MDA-MB-231-KWL cells it was 0.768 nM.
“mAb_Lm_Y92E_HC: Sacituzumab LC Y92E mutein, Sacituzumab HC” registered a concentration giving a half-maximal response (EC50) in the assay on BxPC-3 cells of 6.95 nM.
Regarding “mAb_Lm_I93G_HC: Sacituzumab LC I93G mutein, Sacituzumab HC”, the concentration for a half-maximal effect (EC50) in the assay with BxPC-3 cells is 0.182 nM; in the assay on MDA-MB-231-KWL cells, 0.221 nM.
Turning to “mAb_Lm_Y92A_HC: Sacituzumab LC Y92A mutein, Sacituzumab HC”, the response in the assay with BxPC-3 cells was half-maximal at 9.2 nM (EC50).
With “mAb_Lm_A32Q_HC: Sacituzumab LC A32Q mutein, Sacituzumab HC”, the EC50 in the assay with BxPC-3 cells came out at 18.4 nM.
On to “mAb_Lm_Y53D_HC: Sacituzumab LC Y53D mutein, Sacituzumab HC; HC SEQ ID NO: 11, LC SEQ ID NO: 13”, for which the results for the EC50 with BxPC-3 cells and in the assay on MDA-MB-231-KWL cells were 0.238 nM and 4.89 nM, respectively.
In the case of “mAb_LC_Hm_F108Q: Sacituzumab HC F108Q mutein, Sacituzumab LC”, the EC50 was determined as 0.316 nM in the assay with BxPC-3 cells and 0.365 nM with MDA-MB-231-KWL cells.
For the substance “mAb_Lm_H91K_HC: Sacituzumab LC H91K mutein, Sacituzumab HC”, the EC50 came to 0.899 nM with BxPC-3 cells and 1.96 nM with MDA-MB-231-KWL cells.
On the same counts, the results for “mAb_LC_Hm_F108S: Sacituzumab HC F108S mutein, Sacituzumab LC” are 0.321 nM and 0.651 nM.
“mAb_LC_Hm_Y32E: Sacituzumab HC Y32E mutein, Sacituzumab LC”: the EC50 with BxPC-3 cells came out at 0.416 nM; in the assay with MDA-MB-231-KWL cells, 1.58 nM.
On the same counts, the results for “mAb_LC_Hm_N31P: Sacituzumab HC N31P mutein, Sacituzumab LC” are 0.369 nM and 1.16 nM.
Regarding “mAb_LC_Hm_Y105S: Sacituzumab HC Y105S mutein, Sacituzumab LC”, the concentration for a half-maximal effect (EC50) in the assay on BxPC-3 cells turned out to be 0.312 nM.
Still for that read-out and setting: for “mAb_Lm_S50L_HC: Sacituzumab LC S50L mutein, Sacituzumab HC” the value was 23.8 nM.
Consider “mAb_Lm_Y53N_HC: Sacituzumab LC Y53N mutein, Sacituzumab HC”, for which the concentration giving a half-maximal response (EC50) in the assay with BxPC-3 cells is 0.225 nM; in the assay on MDA-MB-231-KWL cells, 0.843 nM.
On to “mAb_LC_Hm_S103T: Sacituzumab HC S103T mutein, Sacituzumab LC”, for which, in the assay on BxPC-3 cells, the ΔAUC was 171.04, the “AUC (BxPC-3)” value is given as 204.7 and the “ΔAUC/AUC (BxPC-3)” value is given as 0.538. For the same substance, the “AUC (MDA-MB-231-KWL)” value in the assay with MDA-MB-231-KWL cells is listed as 33.66.
As to “mAb_Lm_A32P_HC: Sacituzumab LC A32P mutein, Sacituzumab HC”, the EC50 in the assay with BxPC-3 cells is 0.922 nM.
As to “mAb_Lm_Y53R_HC: Sacituzumab LC Y53R mutein, Sacituzumab HC”, the EC50 with BxPC-3 cells amounted to 0.357 nM; in the assay on MDA-MB-231-KWL cells it was 0.546 nM.
“mAb_Lm_V29R_HC: Sacituzumab LC V29R mutein, Sacituzumab HC” returned an EC50 in the assay on BxPC-3 cells of 0.285 nM.
Regarding “mAb_LC_Hm_Y107N: Sacituzumab HC Y107N mutein, Sacituzumab LC”, the EC50 with BxPC-3 cells is 0.715 nM; in the assay on MDA-MB-231-KWL cells, 1.88 nM.
Regarding “mAb_Lm_T94F_HC: Sacituzumab LC T94F mutein, Sacituzumab HC”, the EC50 with BxPC-3 cells is 0.233 nM; in the assay with MDA-MB-231-KWL cells, 0.374 nM.
For “mAb_LC_Hm_W106L: Sacituzumab HC W106L mutein, Sacituzumab LC”, the EC50 with BxPC-3 cells was determined as 0.326 nM.
For “mAb_LC_Hm_F108T: Sacituzumab HC F108T mutein, Sacituzumab LC”, the EC50 in the assay on BxPC-3 cells amounted to 0.681 nM; in the assay with MDA-MB-231-KWL cells, 1.2 nM.
As to “mAb_Lm_D28H_HC: Sacituzumab LC D28H mutein, Sacituzumab HC”, the figures for the concentration for a half-maximal effect (EC50) in the assay with BxPC-3 cells and in the assay on MDA-MB-231-KWL cells were 0.159 nM and 0.136 nM, respectively.
Take “mAb_Lm_Y53V_HC: Sacituzumab LC Y53V mutein, Sacituzumab HC”: the EC50 with BxPC-3 cells amounted to 0.225 nM; in the assay on MDA-MB-231-KWL cells, 0.343 nM.
The like results for “mAb_Lm_Q89V_HC: Sacituzumab LC Q89V mutein, Sacituzumab HC” were, in that order, 1.68 nM and 8.46 nM.

The values are drawn from patent publication US20240358847A1, “TROP2 BINDERS AND CONJUGATES THEREOF” (MERCK SHARP & DOHME LLC, priority 2023, published 2024).
